# Assay results from patent US20180340012A1, “METHODS AND CO[…] TO IMPROVING PROPERTIES OF PHARMACOLOGICAL AGENTS TARGETING NERVOUS SYSTEM” (University of Utah Research Foundation, priority 2006, published 2018).
# Columns and labels:
# [1] = system: secondarily generalized partial seizures; assay: Hippocampal kindled rat model of partial epilepsy; assay type: in vivo; details: i.p.; decreases from 5
# corneal kindling = assay: Mouse corneal kindling acquisition; assay type: in vivo, CF#1 mice; details: 4 mg/kg i.p. twice daily
# Method: CF#1 mice were randomized to receive either vehicle (0.9% saline) or NAX-5055. Mice in the NAX-5055 group received two doses of NAX-5055 twelve (12 h) and 1 h prior to their first kindling stimulation. One hour (1 h) prior to each subsequent stimulation, mice in the NAX-5055 treated group received another dose of NAX-5055 (4 mg/kg, i.p.). Mice were stimulated twice daily for 16 days. Results are expressed as the mean seizure score per stimulation. As noted above, the results for the NAX-5055 treated mice segregated into two populations; i.e., sensitive (green line) and insensitive (blue line).
# Daily electrical stimulation via the cornea results in a stable kindled state within 15-20 days. This is an ideal model to initially assess the ability of selected galanin analogs to prevent kindling acquisition because the amount of peptide required is much lower than what is required for a rat kindling study. Those compounds found to be effective in preventing the acquisition of kindling are subsequently evaluated in a more traditional rat kindling model; i.e., amygdala kindled rat. For the proposed studies two groups of mice (n=8 mice per group) are randomized to receive either vehicle or peptide prior to each kindling stimulation. […] At the time to peak effect (obtained from the 6 Hz study), they are stimulated via corneal electrodes with a subconvulsive current (50 Hz, 3 mA, for 3.0 sec) and observed for the presence or absence of seizure activity. Seizure activity is scored according to the criteria established by Racine et al., (1972). Animals receive two stimulations per day until they display their first Stage 5 behavioral seizure and then once daily until they display stable secondarily generalized seizures (5 consecutive Stage 4-5 seizures). Peptide treatment continues in the experimental group until the point that the control mice become fully kindled. At this point, mice in both groups are permitted a one-week stimulus and treatment-free week. On the 8th day, mice in both groups are stimulated in the absence of peptide or vehicle and their seizure score recorded.
# The ability of the blood-brain-barrier penetrant galanin-based neuropeptide NAX-5055 to prevent the development of corneal kindling was studied in CF#1 mice. The mouse corneal kindling model is a non-intrusive animal model of partial epilepsy wherein mice receive an initially subconvulsive current (3 mA) for 3 seconds via corneal electrodes twice daily for several days. Vehicle treated mice usually require between 12-16 days to reach a stable Stage 5 seizure; i.e., a secondary generalized focal seizure. In the present study, 16 mice were randomized to one of two experimental groups; saline or NAX-5055. […] Following stimulation seizure activity was scored on a scale of 0-5 as established by Racine (1972).
substance,measurement,setting,value
Sar-Trp-Thr-Leu-Asn-Ser-Ala-Gly-Tyr-Leu-Leu-Gly-Pro-Lys-Lys-(Lys-palm)-Lys-NH2 [NAX 5055],seizure score,[1],3
same,kindling acquisition,corneal kindling,can delay kindling acquisition
same,"more stimulations to reach Stage 2 and Stage 3 seizures, NAX-5055 sensitive group",corneal kindling,35-40%
same,"stimulations required to reach a Stage 1 seizure, NAX-5055 sensitive group",corneal kindling,two times more stimulations
same,mice of NAX-5055 sensitive group that reached Stage 5 seizures,corneal kindling; sensitive n=3 of 8,none
